Laboratory results published in paper PMC9633773, “Discovering cell-active BCL6 inhibitors: effectively combining biochemical HTS with multiple biophysical techniques, X-ray crystallography and cell-based assays” (Scientific Reports, 2022).
Ends that are not written are not given here.

Tests used:
[1] = target: T1, BCL6 BTB domain (Homo sapiens, UniProt P41182); test: Surface plasmon resonance (SPR); type: binding; conditions: immobilised BCL6 BTB, pH 6.0, 1:1 equilibrium model;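 note: Fail means no measurable KD from unsaturated curves poor sensorgrams or non-1:1 stoichiometry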
T1 construct: the tag was removed by HRV-3C protease treatment, generating a simpler BCL6 5–129 product; Thioredoxin (N, cleaved yes); 6His (N, cleaved yes); made in house; host or cells: E. coli BL21-AI
Procedure: All surface plasmon resonance (SPR) experiments were carried out on a Biacore T200 (Cytiva) and amine coupling chemistry was used to immobilise the protein on a research grade CM5 sensor chip. The running buffer consisted of 100 mM sodium acetate, 100 mM sodium chloride, and 1 mM TCEP at pH 6.0. The chip’s surface was activated for 10 min using a 1:1 mixture of 100 mM N-hydroxysuccinimide and 400 mM 1-ethyl-3-(3-dimethylaminopropyl)-carbodiimide. BCL6 BTB protein was injected for 20 min at a concentration of 100 µg/mL in a 10 mM sodium acetate buffer (pH 5.5). Finally, the surface was blocked via an injection of 1 M ethanolamine pH 8.5 for 7 min. The flow rate was maintained at 10 µL/min for all the above procedures and ~ 10,000 response units (RU) of BCL6 was immobilised on the chip. Flow cell one was left unmodified as the reference surface.
Following protein immobilisation, the running buffer was changed to 100 mM sodium acetate, 100 mM sodium chloride, 1 mM TCEP, 0.05% Tween20 (v/v), 5% DMSO at pH 6.0.
All compound handling was performed on an ECHO 550 acoustic liquid dispenser and compounds were added to 384-well polypropylene V-bottomed plates (Greiner), which became the sample plates for the SPR. […] The flow rate was 30 µL/min, the injection time for the samples was 60 s, and the dissociation time was 60 s. The surface was not regenerated between sample injections. KD values were calculated from the Langmuir plot under equilibrium conditions using the 1:1 binding model in the Biacore software version 2 (Cytiva).

[2] = target: T1, BCL6 BTB domain; test: Fluorescence polarisation (FP) competition assay with BCOR-AF633 peptide; type: biochemical; conditions: for FP pIC50 Mean / IC50: repurchased hits; for IC50: up to 2 mM, n=1-6, read-out: FP IC50 Geometric Mean
Procedure: A modified BCOR peptide containing a C-terminal cysteine, labelled with Alexa Fluor (AF)633 C5 maleimide ([…]-Cys(AF633)-amide) was obtained from Cambridge Research Biochemical. For high throughput screening, the assay was miniaturized from 10 µL in Perkin Elmer 384-well black Proxi Plus plates to 4 µL in Labcyte 1536-well black low dead volume LP-0410 plates. Each complete reaction (a modified version from[9],[17]) contained 20 mM Hepes/NaOH pH 8.0, 150 mM NaCl, 0.5 mM tris(2-carboxyethyl)phosphine (TCEP), 0.05% (v/v) Tween 20, 10 nM BCOR-AF633 peptide, 3 µM BCL6 BTB and 1–2% (v/v) DMSO. At this protein concentration, we recorded a FP signal of 80 to 90 mP, corresponding to about 55% BCOR-AF633 bound to the BCL6 BTB domain. Compounds and control BCOR peptide were dispensed using an Echo550 acoustic dispenser (Beckman Coulter). Protein and peptide reagents were added using a Multidrop combi (Thermo Scientific) or a Tempest v2 (Formulatrix). After 2 h incubation at room temperature, plates were read on an Envision plate reader (Perkin Elmer) with excitation and emission wavelengths of 620 nm and 688 nm, respectively, or Pherastar FSX (BMG Labtech) with FP filters module 590-50/675-50/675-50. […] As a low signal control, we used either the maximal inhibition by BCOR in the HTS campaign, or the signal obtained from the probe in the absence of BCL6 for IC50 determination. IC50 values were calculated using a sigmoidal dose–response (variable slope) four- parameter equation. Beside the FP measurement, the total fluorescence intensity (TFI) was recorded to allow identification of interfering compounds (TFI > 110% control)[26].

[3] = target: T2, BCL6 BTB (Homo sapiens, UniProt P41182); test: 19F ligand-observed NMR TFA-WVIP-NH2 peptide displacement assay; type: binding; conditions: for 19F LO-NMR, % peptide displaced: 200 µM compound, 200 µM TFA-WVIP-NH2, 6 µM BCL6 BTB, mean ± SD, n=2, hit if ≥ 30%; for Displacement of BCL6-bound TFA-WVIP-NH2 peptide (recovery of fluorine signal): Figure 3A, qualitative
T2 construct: the tag was removed by HRV-3C protease treatment, generating a simpler BCL6 5–129 product; Thioredoxin (N, cleaved yes); 6His (N, cleaved yes); made in house; host or cells: E. coli BL21-AI
Procedure: Each 180 µL ^19F-NMR peptide displacement assay contained 20 mM HEPES buffer pH 8, 100 mM NaCl, 0.5 mM TCEP, 10% D2O, 200 µM reporter TFA-WVIP-NH2, with or without 200 µM compound (4% D6-DMSO final) and 6 µM BCL6 BTB. Each 180 µL sample reaction was prepared in a 96-well plate and 170 µL transferred to a 3 mm NMR tube (Bruker, Part No. Z112272) using a Gilson liquid handler GX-281. NMR data were collected on a Bruker […] 500 MHz spectrometer equipped with a 5 mm BBFO probe. Data were acquired and processed using Bruker Topsin 2.1. The recovery of the reporter NMR signal upon addition of compound indicates competitive binding at the same site as the TFA-WVIP-NH2 tetrapeptide on the protein. We quantified the extent of recovery of NMR signal in % of reporter displacement[42]: \% displacement=Ireporter(+protein+compound)-Ireporter(+protein)/Ireporter(-protein)-Ireporter(+protein)X100\%

[4] = NMR kinetic solubility; type: physicochemical; conditions: 500 µM final compound concentration, 20 mM HEPES buffer pH 8, 2% or 5% DMSO
Procedure: Solubility measurements by quantitative ^1H-NMR or HPLC method were performed as described previously.

[5] = target: T2, BCL6 BTB; test: Thermal shift assay (TSA); type: binding; conditions: measured at 200 and 400 µM compound; binder if ≥ 1 °C
Procedure: Thermal shift assays were performed in 4titude FrameStar (Part No. 4ti-0385) 384 well skirted PCR plates: each well contained 10 µL of sodium acetate pH 6 buffer, 100 mM NaCl, 0.5 mM TCEP, 10 µM BCL6 BTB and 20 × Sypro Orange dye (Life Technologies), with or without inhibitor compound (100–400 µM) at 4% (v/v) final DMSO concentration. Plates were heated on a Biorad CFX384 real time thermocycler with a temperature gradient from 10 to 95 °C with a 0.5 °C increment, 0.15 s/cycle. Data were processed using Vortex (Dotmatics): a shift of the BCL6 BTB melting temperature (ΔTm) of + 1 °C or more was classed as indicative of BCL6 compound binding.

[6] = target: T3, Trx-6His-BCL6 BTB (Homo sapiens, UniProt P41182); test: TR-FRET assay, Trx-6His-BCL6 BTB / BCOR-A633 peptide; type: biochemical; conditions: 1 or 10 nM Trx-6His-BCL6 BTB; read-out: TR-FRET IC50
T3 construct: made in house; host or cells: E. coli BL21-AI
Procedure: Each 15 µL TR-FRET reaction in 384-well black Proxiplate (Perkin Elmer) contained 1 or 10 nM Trx-6His-BCL6 BTB, 300 nM BCOR-A633 and 0.5 or 1 nM anti-6His-Terbium cryptate (Perkin Elmer), in the FP assay buffer (25 mM Hepes pH 8, 100 mM NaCl, 0.05% (v/v) Tween20, 0.5 mM TCEP), supplemented with 0.05% (w/v) bovine serum albumin. Test compounds in DMSO or DMSO alone were added to the wells using and Echo 550 acoustic dispenser to give the appropriate test concentration in 0.7% v/v DMSO final. After a 2 h incubation at room temperature, the plates were read on an Envision plate reader or a Pherastar FSX plate reader with 337 nm laser excitation, a first emission filter at 665 nm and a second emission filter at 615 or 620 nm. Data were normalised and IC50 determined as described above for the FP assay.

Row | SPR KD [1] | FP pIC50 Mean [2] | IC50 [2] | 19F LO-NMR, % peptide displaced [3] | Sol. (NMR kinetic solubility) [4] | TSA Tm (thermal shift) [5] | FP % inhibition at top concentration ([2]; printed beside IC50 >980 µM, 34% inhibition at 1 mM in text) | Kd [1] | IC50 [6] | FP % inhibition ([2]; at 980 µM, n=4) | Displacement of BCL6-bound TFA-WVIP-NH2 peptide (recovery of fluorine signal) [3] | Molecule
1 | Fail | 3.70 | 197 µM | 61 ± 4% | 71 µM | 0-1 ºC |  |  |  |  |  | Cc1ccccc1C1CC(c2ccccc2)Nc2ncnn21 (stereo not shown) [Compound 1]
2 |  |  | > 980 µM |  | 55 µM | 0-0.5 ºC | 34% |  |  |  |  | Cn1c(=O)n(C)c2cc(Nc3cc(N4CCOCC4)ncn3)ccc21 [Compound 18]
3 |  | 4.15 | 70.2 µM | 100 ± 1% | 39 µM |  |  | 49 µM | 54 µM |  |  | Cn1c(=O)n(C)c2cc(Nc3cc(SCc4ccccc4)ncn3)ccc21 [Compound 17]
4 |  | 3.74 | 183 µM | 78 ± 23% | 188 µM | 1-2.5 ºC |  | 302 µM |  |  |  | O=C(NCc1ccccn1)c1csc(Nc2ccccc2Cl)n1 [Compound 14]
5 | Fail | 3.99 | 102 µM | 54 ± 1% | 64 µM | 0.5-2 ºC |  |  |  |  |  | Fc1ccc(C2CC(c3cccc4ccccc34)n3ncnc3N2)cc1 (stereo not shown) [Compound 3]
6 |  | 3.71 | 194 µM |  | < 30 µM | 0 ºC |  |  |  |  |  | Fc1ccc(C2CC(c3ccccc3Cl)Nc3ncnn32)cc1 (stereo not shown) [Compound 5]
7 |  |  |  |  |  |  |  |  |  | 16% |  | WVIP peptide: hybrid BCOR/SMRT tetrapeptide with an Ac-WVIP-NH2 sequence [reference compound]
8 |  | 3.64 | 230 µM | 102 ± 1% | 313 µM | 0-2.5 ºC |  | 672 µM |  |  |  | N#Cc1c(C(F)(F)F)cc(-c2cccs2)nc1SC(C(=O)O)c1ccccc1 (stereo not shown) [Compound 13]
9 |  | 3.92 | 120 µM | 63 ± 7% | 72 µM | 1-2 ºC |  | 81 µM | 70 µM |  | able to displace | N#Cc1c(NCc2ccccc2)ccnc1Cl [Compound 21]
10 |  | 3.15 | 703 µM | 33.5 ± 1% | 538 µM | 0.5-1 ºC |  | 659 µM |  |  |  | COC(=O)C1=C(C)Nc2ncnn2C1c1ccc(C(=O)O)cc1 (stereo not shown) [Compound 6]
11 | Fail | 3.32 | 477 µM | 49.5 ± 9% | 96 µM |  |  |  |  |  |  | Cc1cc(NCc2ccc3c(c2)OCO3)n2ncnc2n1 [Compound 9]
12 |  | 3.45 | 353 µM | 23 ± 11% | 163 µM | 0.5-1 ºC |  | 1190 µM |  |  |  | CC(C)CCn1c(SCC(=O)Nc2ccccc2F)nc2nccnc2c1=O [Compound 22]
13 |  | 4.02 | 95.5 µM | 82.5 ± 5% | 476 µM | 0.5-3 ºC |  | 168 µM |  |  |  | CCCC1=C(C(=O)OCC)C(c2cccnc2)n2ncnc2N1 (stereo not shown) [Compound 7]
14 | Fail | 3.66 | 219 µM |  | 70 µM | 0.5-2 ºC |  |  |  |  |  | CCC1=C(C(=O)OC)C(c2ccccc2F)n2ncnc2N1 (stereo not shown) [Compound 8]
15 |  | 3.83 | 150 µM | 70 ± 1% | 83 µM |  |  | 553 µM |  |  |  | O=C(NCCCN1CCOCC1)c1csc(Nc2cccc3ccccc23)n1 [Compound 15]
16 |  |  |  |  |  |  |  |  |  |  | able to displace | EGLVATVKEAGRSIHEIPR [SMRT, reference compound]
17 |  | 3.18 | 666 µM |  | < 30 µM | 0 ºC |  |  |  |  |  | COc1cccc(CN(C)c2nc3c(cnn3C(C)(C)C)c(=O)[nH]2)c1 [Compound 20]
